# Measurements reported in PubChem BioAssay AID256 (DTP/NCI, 2004).
# “And” between values parts separate entries of the source, which are not always exact repeats. Equal entries are not always repeated. Toxic doses and inconclusive results are not listed.
# System: CD2F1 mice, L1210 leukemia ip, survival T/C
# Test: NCI In Vivo Anticancer Drug Screen. Data for tumor model L1210 Leukemia (intraperitoneal) in CD2F1 (CDF1) mice
# Conditions: higher = longer survival
# Summary of the method: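 Antitumor effect is scored in animals hosting a serially transplanted tumor. Values compare compound-dosed animals against vehicle-only controls as a simple quotient.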
# [1] = endpoint: mean survival time, dose: 50.0 mg/kg/injection, schedule: Q01DX009 (ip), vehicle: saline with Tween-80
# [2] = endpoint: mean survival time, dose: 100.0 mg/kg/injection, schedule: Q01DX009 (ip), vehicle: saline with Tween-80
# [3] = endpoint: mean survival time, dose: 100.0 mg/kg/injection, schedule: Q04DX003 (ip), vehicle: saline with Tween-80
# [4] = endpoint: mean survival time, dose: 200.0 mg/kg/injection, schedule: Q04DX003 (ip), vehicle: saline with Tween-80
# [5] = endpoint: mean survival time, dose: 200.0 mg/kg/injection, schedule: Q01DX009 (ip), vehicle: saline with Tween-80
# [6] = endpoint: mean survival time, dose: 400.0 mg/kg/injection, schedule: Q04DX003 (ip), vehicle: saline with Tween-80
# [7] = endpoint: mean survival time, dose: 100.0 mg/kg/injection, schedule: Q01DX001 (ip), vehicle: saline with Tween-80
# [8] = endpoint: mean survival time, dose: 200.0 mg/kg/injection, schedule: Q01DX001 (ip), vehicle: saline with Tween-80
# [9] = endpoint: mean survival time, dose: 400.0 mg/kg/injection, schedule: Q01DX001 (ip), vehicle: saline with Tween-80
# [10] = endpoint: mean survival time, dose: 400.0 mg/kg/injection, schedule: Q01DX009 (ip), vehicle: saline with Tween-80
# [11] = endpoint: mean survival time, dose: 100.0 mg/kg/injection, schedule: Q04DX002 (ip), vehicle: saline with Tween-80
# [12] = endpoint: mean survival time, dose: 200.0 mg/kg/injection, schedule: Q04DX002 (ip), vehicle: saline with Tween-80
structure (smiles),measurement,setting,value
O=c1[nH]cc(N(CCCl)CCCl)c(=O)[nH]1,T/C,"endpoint: mean survival time, dose: 0.05 mg/kg/injection, schedule: Q01DX009 (ip), vehicle: saline",101 % of control
same,T/C,"endpoint: mean survival time, dose: 0.08 mg/kg/injection, schedule: Q01DX009 (ip), vehicle: saline",106 % of control
same,T/C,"endpoint: mean survival time, dose: 0.14 mg/kg/injection, schedule: Q01DX009 (ip), vehicle: saline",109 % of control
same,T/C,"endpoint: mean survival time, dose: 0.23 mg/kg/injection, schedule: Q01DX009 (ip), vehicle: saline",112 % of control
same,T/C,"endpoint: mean survival time, dose: 0.23 mg/kg/injection, schedule: Q04DX003 (ip), vehicle: saline",107 % of control
same,T/C,"endpoint: mean survival time, dose: 0.39 mg/kg/injection, schedule: Q04DX003 (ip), vehicle: saline",109 % of control
same,T/C,"endpoint: mean survival time, dose: 0.65 mg/kg/injection, schedule: Q01DX001 (ip), vehicle: saline",115 % of control
same,T/C,"endpoint: mean survival time, dose: 0.65 mg/kg/injection, schedule: Q04DX003 (ip), vehicle: saline",113 % of control
same,T/C,"endpoint: mean survival time, dose: 1.1 mg/kg/injection, schedule: Q01DX009 (ip), vehicle: saline",167 % of control
same,T/C,"endpoint: mean survival time, dose: 1.1 mg/kg/injection, schedule: Q04DX003 (ip), vehicle: saline",151 % of control
same,T/C,"endpoint: mean survival time, dose: 1.8 mg/kg/injection, schedule: Q01DX009 (ip), vehicle: saline",115 % of control
same,T/C,"endpoint: mean survival time, dose: 1.8 mg/kg/injection, schedule: Q04DX003 (ip), vehicle: saline",182 % of control
same,T/C,"endpoint: mean survival time, dose: 3.0 mg/kg/injection, schedule: Q01DX001 (ip), vehicle: saline",163 % of control
same,T/C,"endpoint: mean survival time, dose: 5.0 mg/kg/injection, schedule: Q01DX001 (ip), vehicle: saline",221 % of control
same,T/C,"endpoint: mean survival time, dose: 5.0 mg/kg/injection, schedule: Q04DX003 (ip), vehicle: saline",91 % of control
same,T/C,"endpoint: mean survival time, dose: 8.4 mg/kg/injection, schedule: Q01DX001 (ip), vehicle: saline",110 % of control
Cc1nc2ccc(CCN3CCN(c4ccccc4Cl)CC3)cc2[nH]1,T/C,"endpoint: mean survival time, dose: 50.0 mg/kg/injection, schedule: Q04DX003 (ip), vehicle: Klucel (hydroxypropylcellulose) (HPC)",112 % of control
O=C(O)CCC(=O)c1ccc(Cl)c(Cl)c1,T/C,[1],102 % of control
same,T/C,[2],96 % of control
same,T/C,[3],98 % of control
same,T/C,[4],91 % of control
COc1ccc2c(c1)CCN1C2CCN2CCCC21 (centres undefined),T/C,[3],98 % of control
same,T/C,[4],90 % of control
CN(C)N=Nc1ccc(C(N)=O)cc1,T/C,"endpoint: mean survival time, dose: 18.75 mg/kg/injection, schedule: Q01DX009 (ip), vehicle: Klucel (hydroxypropylcellulose) (HPC)",112 % of control
same,T/C,"endpoint: mean survival time, dose: 150.0 mg/kg/injection, schedule: Q01DX009 (ip), vehicle: Klucel (hydroxypropylcellulose) (HPC)",109 % of control
same,T/C,"endpoint: median survival time, dose: 12.5 mg/kg/injection, schedule: Q01DX005 (ip), vehicle: saline with Tween-80",105 % of control
same,T/C,"endpoint: median survival time, dose: 25.0 mg/kg/injection, schedule: Q01DX005 (ip), vehicle: saline with Tween-80",113 % of control
same,T/C,"endpoint: median survival time, dose: 36.0 mg/kg/injection, schedule: Q01DX005 (ip), vehicle: saline with Tween-80",123 % of control and 110 % of control
same,T/C,"endpoint: median survival time, dose: 36.0 mg/kg/injection, schedule: Q01DX009 (ip), vehicle: saline with Tween-80",116 % of control
same,T/C,"endpoint: median survival time, dose: 60.0 mg/kg/injection, schedule: Q01DX005 (ip), vehicle: saline with Tween-80",113 % of control
same,T/C,"endpoint: median survival time, dose: 100.0 mg/kg/injection, schedule: Q01DX009 (ip), vehicle: saline with Tween-80",166 % of control
same,T/C,"endpoint: median survival time, dose: 167.0 mg/kg/injection, schedule: Q01DX005 (ip), vehicle: saline with Tween-80",157 % of control
same,T/C,"endpoint: median survival time, dose: 167.0 mg/kg/injection, schedule: Q01DX009 (ip), vehicle: saline with Tween-80",176 % of control
same,T/C,"endpoint: median survival time, dose: 278.0 mg/kg/injection, schedule: Q01DX005 (ip), vehicle: saline with Tween-80",96 % of control
same,T/C,"endpoint: median survival time, dose: 278.0 mg/kg/injection, schedule: Q01DX009 (ip), vehicle: saline with Tween-80",98 % of control
CC(C)c1ccc(C2CCCCC2O)cc1 (centres undefined),T/C,[2],89 % of control
same,T/C,[3],105 % of control
same,T/C,[5],92 % of control
same,T/C,[4],91 % of control
same,T/C,[6],94 % of control
c1coc(NC2CCCCC2)n1,T/C,[7],102 % of control
same,T/C,[8],102 % of control
same,T/C,[9],102 % of control
CCCCCC(CN(C)C)C(=O)/C=C\c1ccc(Cl)cc1Cl (centres undefined),T/C,"endpoint: mean survival time, dose: 12.5 mg/kg/injection, schedule: Q01DX009 (ip), vehicle: alcohol",102 % of control
same,T/C,"endpoint: mean survival time, dose: 25.0 mg/kg/injection, schedule: Q01DX009 (ip), vehicle: alcohol",102 % of control
Nc1c([N+](=O)[O-])cncc1[N+](=O)[O-],T/C,"endpoint: mean survival time, dose: 6.25 mg/kg/injection, schedule: Q01DX009 (ip), vehicle: saline sonified",102 % of control
same,T/C,"endpoint: mean survival time, dose: 6.25 mg/kg/injection, schedule: Q04DX003 (ip), vehicle: saline with Tween-80",98 % of control
same,T/C,"endpoint: mean survival time, dose: 12.5 mg/kg/injection, schedule: Q01DX009 (ip), vehicle: saline sonified",98 % of control
same,T/C,"endpoint: mean survival time, dose: 12.5 mg/kg/injection, schedule: Q04DX003 (ip), vehicle: saline with Tween-80",102 % of control
same,T/C,"endpoint: mean survival time, dose: 25.0 mg/kg/injection, schedule: Q01DX009 (ip), vehicle: saline sonified",98 % of control
same,T/C,"endpoint: mean survival time, dose: 25.0 mg/kg/injection, schedule: Q04DX003 (ip), vehicle: saline with Tween-80",102 % of control
CCOC(=O)C(C)OC(=O)c1ccccc1 (centres undefined),T/C,[2],103 % of control
same,T/C,[3],91 % of control
same,T/C,[5],105 % of control
same,T/C,[4],105 % of control
same,T/C,[10],100 % of control
same,T/C,[6],103 % of control
CC(C)(N)CO,T/C,"endpoint: mean survival time, dose: 50.0 mg/kg/injection, schedule: Q01DX009 (ip), vehicle: saline",88 % of control
same,T/C,"endpoint: mean survival time, dose: 100.0 mg/kg/injection, schedule: Q01DX009 (ip), vehicle: saline",100 % of control
same,T/C,"endpoint: mean survival time, dose: 200.0 mg/kg/injection, schedule: Q01DX009 (ip), vehicle: saline",100 % of control
O=CNO,T/C,[7],108 % of control
same,T/C,[8],104 % of control
same,T/C,[9],104 % of control
CCCCCCCCCCC(C)c1ccc(S(=O)(=O)O)cc1 (centres undefined),T/C,"endpoint: mean survival time, dose: 50.0 mg/kg/injection, schedule: Q01DX009 (ip), vehicle: saline sonified",97 % of control
same,T/C,"endpoint: mean survival time, dose: 100.0 mg/kg/injection, schedule: Q01DX009 (ip), vehicle: saline sonified",97 % of control
same,T/C,"endpoint: mean survival time, dose: 200.0 mg/kg/injection, schedule: Q01DX009 (ip), vehicle: saline sonified",102 % of control
CC(Cc1ccccc1)NC=O (centres undefined),T/C,[1],97 % of control
same,T/C,[2],97 % of control
COc1ccc(/C=C/C(=O)c2ccc(Cl)cc2)c(OC)c1,T/C,"endpoint: mean survival time, dose: 100.0 mg/kg/injection, schedule: Q04DX003 (ip), vehicle: other",101 % of control
same,T/C,"endpoint: mean survival time, dose: 200.0 mg/kg/injection, schedule: Q04DX003 (ip), vehicle: other",95 % of control
same,T/C,"endpoint: mean survival time, dose: 400.0 mg/kg/injection, schedule: Q04DX003 (ip), vehicle: other",93 % of control
CCSCCN1C(=O)C2C3CCC(O3)C2C1=O (centres undefined),T/C,[11],93 % of control
same,T/C,[12],93 % of control
Cc1cc(NC(=O)SCCOC(=O)COc2ccc(Cl)cc2)ccc1Cl,T/C,[3],91 % of control
same,T/C,[4],91 % of control
same,T/C,[6],89 % of control
CC(=O)OCC(=O)C1(O)CCC2C3CCC4=CC(=O)CCC4(C)C34OC4CC21C (centres undefined),T/C,[2],98 % of control
same,T/C,[5],94 % of control
same,T/C,[10],91 % of control
CCCCCCCCC/C=C(\CCCCCCCCCC)c1ccccc1,T/C,"endpoint: mean survival time, dose: 100.0 mg/kg/injection, schedule: Q01DX001 (ip), vehicle: saline",94 % of control
same,T/C,"endpoint: mean survival time, dose: 200.0 mg/kg/injection, schedule: Q01DX001 (ip), vehicle: saline",94 % of control
same,T/C,"endpoint: mean survival time, dose: 400.0 mg/kg/injection, schedule: Q01DX001 (ip), vehicle: saline",100 % of control
OCC1OC(n2cc(I)c3c2ncn2nnnc32)C(O)C1O (centres undefined),T/C,"endpoint: mean survival time, dose: 1.56 mg/kg/injection, schedule: Q01DX005 (ip), vehicle: water",88 % of control
same,T/C,"endpoint: mean survival time, dose: 3.13 mg/kg/injection, schedule: Q01DX005 (ip), vehicle: water",95 % of control
same,T/C,"endpoint: mean survival time, dose: 6.25 mg/kg/injection, schedule: Q01DX005 (ip), vehicle: water",95 % of control
same,T/C,"endpoint: mean survival time, dose: 12.5 mg/kg/injection, schedule: Q01DX005 (ip), vehicle: water",98 % of control
same,T/C,"endpoint: mean survival time, dose: 25.0 mg/kg/injection, schedule: Q01DX005 (ip), vehicle: water",87 % of control and 97 % of control
same,T/C,"endpoint: mean survival time, dose: 50.0 mg/kg/injection, schedule: Q01DX005 (ip), vehicle: water",97 % of control
CCOc1ccc(Nc2c3ccccc3nc3ccccc23)cc1,T/C,[5],88 % of control
COc1ccccc1NC(=O)Oc1ccc(SC)c(C)c1,T/C,[11],100 % of control
same,T/C,[12],95 % of control
same,T/C,"endpoint: mean survival time, dose: 400.0 mg/kg/injection, schedule: Q04DX002 (ip), vehicle: saline with Tween-80",95 % of control
CC(=O)C1CCC2C3CCC4=CC(=O)CC4(C)C3CCC12C (centres undefined),T/C,[3],113 % of control
same,T/C,[4],124 % of control
